Data from patent publication US20230129485A1, “SYSTEM AND METHOD FOR DETERMINING MATERIAL PROPERTIES OF MOLECULAR SYSTEMS FROM AN AB-INITIO PARAMETERIZED FORCE-FIELD” (InterX, Inc., priority 2021, published 2023).
Where two headings read alike, the source gives them in different places.

Tests used:
[1] = Free energy of hydration predicted with the QM-parameterized force field model (ARROW FF), classical MD and PIMD simulation in a water box; conditions: for Arrow error: Table 5, error of Arrow PIMD8 hydration free energy vs experiment; for Arrow PIMD8 Error: absolute error vs Exp (hydration)
Outline: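 Classical and PIMD runs (MTS integrator, MTTK barostat at 1 atm) followed minimization and 50 ps equilibration, with 1 ns NPT production per window. Fifteen unequally spaced lambda windows removed all solute-solvent interactions simultaneously in a 32 Å water box. Hydration free energy computed by Bennett acceptance ratio and thermodynamic integration.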

[2] = Free energy of hydration predicted by General Amber Force Field (GAFF), from literature; conditions: Table 5; error of GAFF hydration free energy vs experiment
[3] = Free energy of hydration predicted by polarizable AMOEBA force field, from literature; conditions: Table 5; error of AMOEBA hydration free energy vs experiment
[4] = Free energy of hydration by Solvation Model Dielectric (SMD) implicit solvent model; conditions: absolute error vs Exp (hydration)
Outline: (§1)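 Computed, not measured. COSMO: run in MolPro on the dataset. SMD/PCM: predicted values supplied externally. SMD, PCM, COSMO-RS restricted to the overlap with the QM-parameterized force field molecule set.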

[5] = Free energy of hydration by Polarizable Continuum Model (PCM); conditions: absolute error vs Exp (hydration)
Outline: as §1

[6] = Free energy of hydration by COSMO-RS
Outline: as §1

[7] = Free energy of hydration by Free Energy Machine Learning Model (FML); conditions: absolute error vs Exp (hydration)
Source text: Machine learning models can be used for free energy determination.

[8] = experimental, cited from earlier work; for Exp (hydration): Table 5
[9] = experimental, cited from earlier work
[10] = Table 5; free energy of hydration, GAFF prediction taken from literature; cited from earlier work
[11] = Table 5; free energy of hydration, AMOEBA prediction taken from literature; cited from earlier work
[12] = implicit solvent model, values received; cited from earlier work
[13] = implicit solvent model, values received; cited from earlier work; remark: listed apart in the source
[14] = CHEX/H2O partition coefficient (log D) predicted with the QM-parameterized force field model (ARROW FF)
Outline: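 Cyclohexane/water partition coefficients were predicted by molecular simulation with a QM-parameterized force field, with bonded force constants and equilibrium values fitted to MP2/aug-cc-pVTZ energies. Solutes carried neutral functional groups, and results from four independent groups were averaged.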

[15] = Bulk solvent properties (density, heat of vaporization, self-solvation) predicted with the QM-parameterized force field model (AFF MD / PIMD); conditions: within chemical accuracy
Source text: Particle-Mesh Ewald (PME) algorithm was used to compute the electrostatic interactions. A 32×32×32 grid mesh and 5th power spline interpolation order can be used to compute the inverse PME sum. 9 Å cutoffs were used to compute the direct PME sum as well as the exchange and dispersion interactions. Bulk corrections were applied to account for distance cut-off of dispersion interactions. Solvation free energies were computed by decoupling the interactions between the solute and the solvent molecules. Electrostatic, exchange-repulsion and dispersion interactions were switched off simultaneously using a lambda-dependent scaling (a scaling factor power=2 was used) and a soft-coring algorithm (maximal soft-coring radius=1.5 Å, soft-coring radius scaling factor power=1). 15 lambda points unequally spaced (X=0, 0.05, 0.1, 0.2, 0.3, 0.4, 0.5, 0.6, 0.7, 0.75, 0.8, 0.85, 0.9, 0.95, 1.0) were used to decouple the solute-solvent intermolecular interactions.
In some simulations of the QM-parameterized force field molecular simulation process, energy minimization (10,000 steps) using the steepest descent algorithm was initially performed on all the simulation systems. This was followed by a 50 ps equilibration and 1 ns production runs in the isothermal-isobaric ensemble (NPT). […] Pressure was maintained at 1 atm using a MTTK barostat (relaxation time=5 ps). […]

[16] = Free energy of hydration by COSMO implicit solvent model (MolPro ver. 2012); conditions: absolute error vs Exp (hydration)
Outline: as §1

[17] = experimental; cited from earlier work
[18] = CHEX/H2O partition coefficient, experimental, cited from earlier work; for Exp (log D): Table 3; for logD Exp (logD): Table 4
[19] = Free energy of solvation in cyclohexane predicted with the QM-parameterized force field model (ARROW FF), MD and PIMD; conditions: Table 4; for CHEX Arrow MD Error: error of MD cyclohexane solvation free energy vs experiment; for CHEX Arrow PIMD4 Error: error of PIMD4 cyclohexane solvation free energy vs experiment
Outline: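 Solute–cyclohexane interactions decoupled over 15 λ points with soft-core scaling, in MD and path-integral simulations under NPT at 1 atm using PME electrostatics and 9 Å cutoffs. Each window had 50 ps equilibration and 1 ns production; free energies from BAR and TI.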

[20] = Table 3, absolute error of MD hydration free energy vs experiment
[21] = Table 3, absolute error of PIMD8 hydration free energy vs experiment
[22] = Table 3, free energy of hydration
[23] = Table 3, free energy of solvation in cyclohexane
[24] = Table 4, error of MD hydration free energy vs experiment
[25] = Table 4, error of PIMD8 hydration free energy vs experiment
[26] = Table 4, neutral amino-acid analogues
[27] = Table 4, solvation free energy in cyclohexane

| SMILES | water Arrow MD Error [1, 20] | water Arrow PIMD8 Error [1, 21] | Arrow error [1] | Arrow PIMD8 Error [1] | GAFF error [2] | AMOEBA error [3] | SMD Error [4] | PCM Error [5] | COSMO-RS error [6] | FML error [7] | water Exp (hydration) [8, 22] | Exp (hydration) ([8]; free energy of hydration) | CHEX Exp (solvation) [9, 23] | GAFF [10] | AMOEBA [11] | SMD free energy of hydration [12] | PCM free energy of hydration [13] | log D Arrow MD Error [14] | log D Arrow PIMD Error [14] | COSMO/Molpro Error [16] | other results |
| --- | --- | --- | --- | --- | --- | --- | --- | --- | --- | --- | --- | --- | --- | --- | --- | --- | --- | --- | --- | --- | --- |
| CC(C)O [2-Propanol] | 1.26 kcal/mol | 0.00 kcal/mol | 0.00 kcal/mol | 0.00 kcal/mol | 1.34 kcal/mol | 0.41 kcal/mol | 0.32 kcal/mol | 1.52 kcal/mol | 0.00 kcal/mol | 0.29 kcal/mol | -4.62 kcal/mol | -4.62 kcal/mol | -2.37 kcal/mol | -3.28 kcal/mol | -4.21 kcal/mol | -4.30 kcal/mol | -3.10 kcal/mol |  |  |  |  |
| C1CCCCC1 [Cyclohexane] | 1.03 kcal/mol | 0.10 kcal/mol |  | 0.10 kcal/mol |  |  | 0.17 kcal/mol | 1.33 kcal/mol | 0.10 kcal/mol |  | 1.23 kcal/mol |  | -4.42 kcal/mol |  |  | 1.40 kcal/mol | -0.10 kcal/mol | 0.89 | 0.36 | 1.71 kcal/mol | agreement of bulk energetics [15]: ≤ 0.5 kcal/mol; Hydration [8]: 1.20 kcal/mol; Density [17]: 0.790 g/cc; Hvap [17]: 7.91 kcal/mol; self-solvation [17]: -4.42 kcal/mol; Exp (log D) [18]: 4.14 |
| CCO [Ethanol] | 0.74 kcal/mol | 0.07 kcal/mol | 0.07 kcal/mol | 0.07 kcal/mol | 1.56 kcal/mol | 0.32 kcal/mol | 0.81 kcal/mol | 1.91 kcal/mol | 0.07 kcal/mol | 0.08 kcal/mol | -5.01 kcal/mol | -5.01 kcal/mol | -2.59 kcal/mol | -3.45 kcal/mol | -4.69 kcal/mol | -4.20 kcal/mol | -3.10 kcal/mol |  |  | 1.19 kcal/mol | water Arrow MD Error [1, 24]: 0.74 kcal/mol; water Arrow PIMD8 Error [1, 25]: 0.07 kcal/mol; CHEX Arrow MD Error [19]: 0.05 kcal/mol; CHEX Arrow PIMD4 Error [19]: 0.12 kcal/mol; water Exp (hydration) [8, 26]: -5.01 kcal/mol; CHEX Exp (solvation) [9, 27]: -2.59 kcal/mol |
| C [Methane] | 0.32 kcal/mol | 0.09 kcal/mol | 0.09 kcal/mol | 0.09 kcal/mol | 0.24 kcal/mol | 0.23 kcal/mol | 0.24 kcal/mol | 2.06 kcal/mol | 0.20 kcal/mol | 1.59 kcal/mol | 1.96 kcal/mol | 1.96 kcal/mol | 0.14 kcal/mol | 2.20 kcal/mol | 1.73 kcal/mol | 2.20 kcal/mol | -0.10 kcal/mol | 0.25 | 0.09 | 2.35 kcal/mol | water Arrow MD Error [1, 24]: 0.32 kcal/mol; water Arrow PIMD8 Error [1, 25]: 0.09 kcal/mol; CHEX Arrow MD Error [19]: 0.01 kcal/mol; CHEX Arrow PIMD4 Error [19]: 0.04 kcal/mol; logD Arrow MD Error [14]: 0.25; logD Arrow PIMD Error [14]: 0.09; water Exp (hydration) [8, 26]: 1.96 kcal/mol; CHEX Exp (solvation) [9, 27]: 0.14 kcal/mol; Exp (log D) [18]: 1.33; logD Exp (logD) [18]: 1.33 |
| CCCCCCCCO [Octanol] | 1.40 kcal/mol | 0.22 kcal/mol | 0.22 kcal/mol | 0.22 kcal/mol | 1.11 kcal/mol | 1.44 kcal/mol | 0.69 kcal/mol | 0.79 kcal/mol | 0.18 kcal/mol | 0.02 kcal/mol | -4.09 kcal/mol | -4.09 kcal/mol |  | -5.20 kcal/mol | -2.65 kcal/mol | -3.40 kcal/mol | -3.30 kcal/mol |  |  | 2.57 kcal/mol |  |
| CCC [Propane] | 0.66 kcal/mol | 0.00 kcal/mol | 0.00 kcal/mol | 0.00 kcal/mol | 0.60 kcal/mol | 0.27 kcal/mol | 0.16 kcal/mol | 2.06 kcal/mol | 0.05 kcal/mol | 0.50 kcal/mol | 1.96 kcal/mol | 1.96 kcal/mol | -2.03 kcal/mol | 2.56 kcal/mol | 1.69 kcal/mol | 1.80 kcal/mol | -0.10 kcal/mol | 0.31 | 0.04 | 2.43 kcal/mol | water Arrow MD Error [1, 24]: 0.66 kcal/mol; water Arrow PIMD8 Error [1, 25]: 0.00 kcal/mol; CHEX Arrow MD Error [19]: 0.23 kcal/mol; CHEX Arrow PIMD4 Error [19]: 0.05 kcal/mol; logD Arrow MD Error [14]: 0.31; logD Arrow PIMD Error [14]: 0.04; water Exp (hydration) [8, 26]: 1.96 kcal/mol; CHEX Exp (solvation) [9, 27]: -2.03 kcal/mol; Exp (log D) [18]: 2.93; logD Exp (logD) [18]: 2.93 |
| CCCO [Propanol] | 0.58 kcal/mol | 0.18 kcal/mol | 0.18 kcal/mol | 0.18 kcal/mol | 1.80 kcal/mol | 0.07 kcal/mol | 0.82 kcal/mol | 1.82 kcal/mol | 0.12 kcal/mol | 0.11 kcal/mol | -4.92 kcal/mol | -4.92 kcal/mol | -2.73 kcal/mol | -3.12 kcal/mol | -4.85 kcal/mol | -4.10 kcal/mol | -3.10 kcal/mol |  |  | 1.30 kcal/mol |  |
| c1ccncc1 [pyridine] | 0.84 kcal/mol | 0.08 kcal/mol | 0.08 kcal/mol | 0.08 kcal/mol | 1.24 kcal/mol | 0.90 kcal/mol | 0.49 kcal/mol | 1.49 kcal/mol | 0.73 kcal/mol | 0.21 kcal/mol | -4.69 kcal/mol | -4.69 kcal/mol | -4.30 kcal/mol | -3.45 kcal/mol | -5.59 kcal/mol | -4.20 kcal/mol | -3.20 kcal/mol |  |  | 2.04 kcal/mol |  |
